Data from paper PMC7144376, “Antiviral Effects of Novel 2-Benzoxyl-Phenylpyridine Derivatives” (Molecules, 2020).

How the values were obtained:
CVB3 = experiment: Inhibition of CVB3-induced cytopathic effects in Hep-2 cells (MTT); format: cell-based, Coxsackievirus B3; conditions: for EC50: Enterovirus B, 100 TCID50 CVB3, 48 h, MTT, read-out: EC50 (50% protection from virus-induced cytopathogenicity), CVB3
Procedure: (§1) Figure 1 Antiviral activities of novel 2-benzoxyl-phenylpyridine derivatives against CVB3 and ADV7. […] Hep-2 or HeLa cells were infected with 100 TCID50 of CVB3 or ADV7 for 1.5 h at 37 °C. Then, the inocula were aspirated and the cells were incubated with various concentrations of test compounds for 48 h. Cell viability was determined using the MTT assay. (b) Images showing the morphology of Hep-2 and HeLa cells treated with 120 μM W-9, 160 μM W-13, or 160 μM W-15 (magnification, 20×).
(§2) The antiviral activities of compounds against CVB3 and ADV7 were determined by measuring their inhibition of virus-induced CPEs in acutely infected Hep-2 and HeLa cells, respectively. Confluent cell monolayers in 96-well plates were infected with 100 TCID50 of CVB3 or ADV7 for 1.5 h at 37 °C, inocula were aspirated, and the cells then were incubated with various concentrations of compounds at 37 °C, 5% CO2, for 48 h. CPEs were observed by microscopy and the viability of cells was determined using MTT assays. The concentrations of test compounds required to achieve 50% protection from virus-induced cytopathogenicity (EC50 values) were determined. Adverse effects of tested compounds on host cells were also assessed using the MTT method after exposing uninfected cells to various concentrations of test compounds for 48 h at 37 °C. The CC50 values of compounds were calculated using SPSS software and selectivity indices were the ratio of CC50:EC50. Each experiment was performed in triplicate and at least three times, independently.

[1] = Cytotoxicity on uninfected Hep-2 cells (MTT, 48 h); format: cell-based; conditions: human, read-out: CC50 (reduce cell viability by 50%), CVB3 host cells
Procedure: (§3) Human laryngeal carcinoma cells (Hep-2) and human cervical carcinoma cells (HeLa) were maintained in DMEM (Gibco) supplemented with 10% fetal bovine serum (FBS; Gibco), 100 U/mL penicillin and streptomycin, and 2 mM L-glutamine.
as §2

[2] = Cytotoxicity on uninfected HeLa cells (MTT, 48 h); format: cell-based; conditions: human, read-out: CC50 (reduce cell viability by 50%), ADV7 host cells
Procedure: as §3, §2

ADV7 = experiment: Inhibition of ADV7-induced cytopathic effects in HeLa cells (MTT); format: cell-based, adenovirus type 7; conditions: for EC50: Human mastadenovirus B, 100 TCID50 ADV7, 48 h, MTT, read-out: EC50 (50% protection from virus-induced cytopathogenicity), ADV7
Procedure: as §1, §2

Row | Structure (SMILES) | SI (CC50/EC50), CVB3 (CVB3) | inhibitory activity against CVB3 infection (in words) (CVB3) | EC50 (CVB3) | CC50 at 48 h [1] | CC50 at 48 h [2] | SI (CC50/EC50), ADV7 (ADV7) | inhibitory activity against ADV7 infection (in words) (ADV7) | EC50 (ADV7)
1 | Cc1cccnc1-c1ccc(F)cc1OC(=O)c1ccccc1 [W8] | 4.4 | selective antiviral activities against CVB3 | 80.1 ± 15 µM | 354 ± 49.5 µM | 843 ± 37.1 µM | – | – | –
2 | O=C(Oc1ccsc1-c1ccccn1)c1ccccc1 [W11] | – | – | – | 378 ± 19.2 µM | 1020 ± 72.6 µM | – | – | –
3 | O=C(Oc1cc(Br)ccc1-c1ccccn1)c1ccccc1 [W10] | 5.0 | significant inhibitory activities | 36.7 ± 15.8 µM | 184 ± 26.3 µM | 249 ± 23.2 µM | 4.9 | significant inhibitory activities | 51.1 ± 20.1 µM
4 | O=C(Oc1ccccc1-c1ccccn1)c1ccccc1 [W1] | – | – | – | 594 ± 49.1 µM | 1060 ± 93.5 µM | – | – | –
5 | COc1ccc(-c2ccccn2)c(OC(=O)c2ccccc2)c1 [W2] | 2.4 | significant inhibitory activities | 101 ± 14.1 µM | 240 ± 22 µM | > 656 µM | >12.9 | significant inhibitory activities | 50.8 ± 16.7 µM
6 | Cc1cccc(OC(=O)c2ccccc2)c1-c1ccccn1 [W3] | 6.0 | – | – | 630 ± 39.4 µM | 921 ± 59.5 µM | 9.8 | – | –
7 | COc1ccc(OC(=O)c2ccccc2)c(-c2ncccc2C)c1 [W5] | – | – | – | 33.5 ± 9.4 µM | 38.9 ± 18.8 µM | – | – | –
8 | CC(=O)c1ccc(-c2ccccn2)c(OC(=O)c2ccccc2)c1 [W14] | 5.6 | significant inhibitory activities | 87.1 ± 21.1 µM | 490 ± 26.8 µM | 979 ± 27.8 µM | 13.0 | significant inhibitory activities | 75.4 ± 20.2 µM
9 | Cc1ccc(OC(=O)c2ccccc2)c(-c2ncccc2C)c1 [W6] | 2.8 | significant inhibitory activities | 88.4 ± 19.5 µM | 244 ± 30.4 µM | 326 ± 21.8 µM | 4.9 | significant inhibitory activities | 66 ± 20.1 µM
10 | Cc1cccnc1-c1ccc(Br)cc1OC(=O)c1ccccc1 [W12] | – | – | – | 128 ± 17.9 µM | 211 ± 14.7 µM | 3.3 | selective anti-ADV7 activity | 63.6 ± 16.6 µM
11 | Cc1cccnc1-c1ccc(Cl)cc1OC(=O)c1ccccc1 [W4] | 4.1 | selective antiviral activities against CVB3 | 54.4 ± 11.1 µM | 222 ± 24.1 µM | 797 ± 45.7 µM | – | – | –
12 | Cc1cccnc1-c1sccc1OC(=O)c1ccccc1 [W7] | – | – | – | 350 ± 28.8 µM | 1030 ± 63.1 µM | – | – | –
